Data on eleven molecules can be found in ChEMBL document CHEMBL2331301, “Structural analysis of the active sites of dihydrofolate reductase from two species of Candida uncovers ligand-induced conformational changes shared among species” (Bioorg Med Chem Lett, 2013).

In brackets after ≈: the same amount, converted by molar mass. Activity calls are given as the source filed them. The rule behind the calls is not given here.

For assay [1], the system named is Nakaseomyces glabratus. The assay can be described thus: Binding affinity to Candida glabrata DHFR at 1 mM incubated for 2 hrs by crystallographic analysis in presence of 1 mM NADPH.
The target of assay [2] is T1, Dihydrofolate reductase (Candida albicans) (UniProt P22906).
T1 sequence (whole entry): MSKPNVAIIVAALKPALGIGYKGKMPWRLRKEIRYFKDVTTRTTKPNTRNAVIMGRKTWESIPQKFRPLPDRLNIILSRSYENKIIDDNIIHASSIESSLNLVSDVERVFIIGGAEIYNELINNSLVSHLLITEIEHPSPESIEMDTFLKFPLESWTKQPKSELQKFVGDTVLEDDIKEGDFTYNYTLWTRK
The assay can be described thus: Binding affinity to Candida albicans DHFR at 1 mM incubated for 2 hrs by crystallographic analysis in presence of 1 mM NADPH.

Assay [3] in a line: Selectivity ratio of IC50 for human DHFR to Candida glabrata DHFR.
Assay [4] concerns the target T2, Dihydrofolate reductase (Homo sapiens, UniProt P00374).
T2 sequence (P00374 whole entry): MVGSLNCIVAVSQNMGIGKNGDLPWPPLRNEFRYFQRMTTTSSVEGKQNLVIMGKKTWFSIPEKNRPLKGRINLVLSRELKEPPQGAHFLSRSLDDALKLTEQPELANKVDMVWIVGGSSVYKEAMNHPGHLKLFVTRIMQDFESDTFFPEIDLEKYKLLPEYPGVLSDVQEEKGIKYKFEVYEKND
Briefly: Inhibition of human DHFR.

Assay [5] is described as follows: Selectivity ratio of IC50 for human DHFR to Candida albicans DHFR.
Assay [6] is described as follows: Inhibition of Candida glabrata DHFR. On the set-up: species or system Nakaseomyces glabratus.
The target in assay [7] is T3, Dihydrofolate reductase (Candida albicans, UniProt P22906).
T3 sequence (P22906 whole entry): T1 sequence (whole entry)
Briefly: Inhibition of Candida albicans DHFR.

In assay [8] the test system is Candida albicans. Briefly: Antifungal activity against Candida albicans. It counts as functional.
Assay [9] deals with Nakaseomyces glabratus. The assay can be described thus: Antifungal activity against Candida glabrata. It counts as functional.

Consider `CCc1nc(N)nc(N)c1C#CCc1cc(OC)cc(-c2ccc3c(c2)OCCO3)c1`, for which the outcome in assay [1] and in assay [2] was Active. For the same molecule, the results for the Ratio IC50 in [3] and in assay [5] were 7.4 and 1.8, respectively. Moreover, the concentration for half-maximal inhibition (IC50) in [4] was 140 nM; in assay [6], 19 nM; in assay [7], 78 nM.

With `CCc1nc(N)nc(N)c1C#CC(C)c1cc(OC)cc(-c2cccc3cnccc23)c1` (configuration not stated), the Ratio IC50 in [3] worked out at 4.1; in [5], 2.6. The half-maximal inhibitory concentration (IC50) came out at 45 nM in assay [4], 11 nM in assay [6] and 17 nM in [7].

As for `CCc1nc(N)nc(N)c1C#CC(C)c1cc(OC)cc(-c2ccncc2)c1` (configuration not stated), the result in assay [1] and in [2] was Active. In addition, the Ratio IC50 came to 15 in assay [3] and 22 in assay [5]. Besides, the IC50 is 89 nM in [6] and 60 nM in assay [7].

Take `CCc1nc(N)nc(N)c1C#CC(C)c1cc(OC)cc(N2CCOCC2)c1` (configuration not stated): the result in assay [1] was Active. In addition, the Ratio IC50 in assay [3] and in assay [5] was 11 in each case. Further, the IC50 in assay [4] was determined as 250 nM; in assay [6], 22 nM; in assay [7] it was 23 nM.

Take `COc1cc(C(C)(C)C#Cc2c(C)nc(N)nc2N)cc(OC)c1OC`: the Ratio IC50 in assay [3] came out at 26; in assay [5] it was 9. The IC50 in [6] is 11 nM; in assay [7], 33 nM.

As to `CCc1nc(N)nc(N)c1C#CCc1cc(OC)ccc1OC`, the IC50 in [6] was 8.2 nM.

Take `CCc1nc(N)nc(N)c1C#CCc1cc(OC)cc(-c2cccc3cnccc23)c1`: the Ratio IC50 in assay [3] came to 3.8; in [5], 0.84. Further, the half-inhibitory concentration (IC50) came to 60 nM in assay [4], 16 nM in assay [6] and 71 nM in [7].

With `COc1cc(C(C)C#Cc2c(C)nc(N)nc2N)cc(N2CCOCC2)c1` (configuration not stated), the Ratio IC50 in assay [3] stood at 20; in assay [5], 19. Also, the values for the IC50 in assay [6] and in assay [7] were 20 nM and 21 nM, respectively.

As for `COc1cc(-c2ccncc2)cc(C(C)C#Cc2c(C)nc(N)nc2N)c1` (configuration not stated), the results for the Ratio IC50 in assay [3] and in assay [5] were 15 and 25, respectively. Moreover, the concentration for half-maximal inhibition (IC50) in [6] amounted to 97 nM; in assay [7] it was 61 nM.

In the case of `COc1cc(-c2ccc(C)cc2)cc(C(C)C#Cc2c(C)nc(N)nc2N)c1` (configuration not stated), the outcome in assay [1] and in assay [2] was Active. The same molecule showed an IC50 in assay [6] of 0.6 nM. Moreover, the MIC in [8] and in [9] was 1.5 µg/mL (≈ 4.03 µM) each time.

Take `CCc1nc(N)nc(N)c1C#CC(C)c1cc(OC)cc(-c2ccc3c(c2)OCCO3)c1` (configuration not stated): the figures for the Ratio IC50 in assay [3] and in assay [5] were 14 and 11, respectively. Besides, the figures for the IC50 in assay [4], in assay [6] and in assay [7] were 260 nM, 18 nM and 23 nM, respectively.
